Data from patent US12644100B2, “Methods for treating metabolic disorders by targeting ADCY5” (THE BROAD INSTITUTE, INC., priority 2019, dated 2026).

System: primary differentiating osteoblasts
Assay: Osteoblast differentiation assay (ALP activity) in primary differentiating osteoblasts treated with etomoxir
Assay type: cell-based, human
Details: 100 μM etomoxir between day 2 and day 5 of differentiation
Experimental: FIG. 9A-9E—3q21.1 haplotype affects lipid oxidation in adipocytes and osteoblasts. (9A) Osteoblast alkaline phosphatase (ALP) activity in primary differentiating osteoblasts treated with 100 μM etomoxir (carnitine palmitoyltransferase 1 antagonist) or negative control. Assays were performed in cells from 18 heterozygous individuals (haplotypes 1/2) and 23 homozygous individuals (haplotypes 1/1) and differentiating osteoblasts were treated between day 2 and day 5 of differentiation. (9B) Oxidation of [14C]palmitate (0.5 mM) to 14CO2 in primary differentiating osteoblasts treated with 100 μM etomoxir (carnitine palmitoyltransferase 1 antagonist) or negative control. […] Seahorse XF24 Flux analyzer was performed at each time point and contribution of ATP generation was calculated from glycolysis vs. oxidative phosphorylation. […] Isogenic lines were differentiated to osteoblasts after undergoing clonal expansion, and marker gene expression for osteoblast differentiation was measured by qPCR. […] Isogenic lines were differentiated to adipocytes after undergoing clonal expansion, and catecholamine-stimulated lipolysis was measured. […]
Culture and differentiation of primary human AMSCs. […] Additionally, small quantities of the original liposuction material would be aliquoted into T-25 flasks at a 1:1 ratio of fat to medium as controls to check for contamination. […]

With `CCOC(=O)[C@@]1(CCCCCCOc2ccc(Cl)cc2)CO1` [etomoxir] the “osteoblast differentiation (ALP activity)” value (haplotype 1 homozygotes (n=23), p-value=0.005) was “dramatic reduction in osteoblast differentiation” and the “osteoblast differentiation (ALP activity)” value (heterozygotes haplotypes 1/2 (n=18)) was “no effect”.
